Like-named read-outs stand apart in the source and are kept apart here.
Key:
DIO mice [1] = test: Example 2: terminal liver and epididymal fat weights in DIO mice; type: in vivo; conditions: 6 weeks; for epididymal fat weight (% body weight): vehicle 3.4±0.3; for liver weight (% body weight): vehicle 5.6±0.2
Protocol: Animals were terminated using CO2 inhalation and induction of pneumothorax. Four mice from each treatment group were sacrificed at 0.5 hr post dose and four were sacrificed at 4 hours post dose. […] Organ weights (liver, epididymal fat) were recorded. All data are represented as group mean±SEM. Data were analyzed using JMP (SAS software). All normalizations were calculated using terminal body weight. All assigned animals completed the study. […] Treatment effects compared to vehicle were determined using Oneway ANOVA (*, p<0.05) followed by Dunnett's test where appropriate.

DIO mice [2] = test: Example 2: oral glucose tolerance test (OGTT) in DIO mice; type: in vivo; conditions: for decrease of glucose AUC on day 42 compared to baseline: vehicle 12.6±10.3%; for OGTT glucose AUC on day 42: vehicle 27.8±1.2; for OGTT glucose AUC on day 28: vehicle 27.9±1.1; for OGTT glucose AUC at baseline: day −1 before treatment
Protocol: (§1) Male DIO (diet-induced obesity) mice (C57BLJ6NTac DIO MPF, n=35) were purchased from Taconic Biosciences (Rensselaer, N.Y.). DIO mice were prepared by feeding male C57BL16 mice a high fat diet (HFD, D12492; Research Diets, Inc., New Brunswick, N.J.) from 6-16 weeks of age. A twelve-hour light cycle was maintained throughout study duration. Room temperature was monitored daily and maintained at 22-25° C. DIO mice were housed individually and maintained on the HFD during a 7-day facility acclimation period and throughout the study period. All mice were administered vehicle (5% DMSO/3% ethanol/92% peanut oil) once daily during the acclimation period.
(§2) Compounds were administered once daily in the morning by oral gavage for 6 weeks. Dose volume was maintained at 5 ml/kg throughout the study.
(§3) Whole blood was obtained weekly from fed animals by tail clip for measurement of non-fasted blood glucose (StatStrip; Nova Biomedical, Waltham, Mass.) on day 7, day 14, day 21 and day 35 after first dosing. Body weight was recorded prior to glucose measurement at baseline and weekly thereafter. Oral glucose tolerance tests were performed in fasted mice at baseline (day −1), day 28 and day 42 thereafter. […] At the end of the 6-hour fasting period, mice were challenged with glucose (2 g/kg, 10 ml/kg, by oral gavage). Blood samples were obtained by tail clip at 0, 20, 40, 60, 90 and 120 minutes post-glucose load for assessment of blood glucose by StatStrip. Serum insulin was measured from time 0 blood samples of OGTT using the Mouse/Rat Insulin Kit (MSD #K152BZC; Meso Scale Diagnostics, Rockville, Md.).
(§4) All data are represented as group mean±SEM. Data were analyzed using JMP (SAS software). All normalizations were calculated using terminal body weight. […] Treatment effects compared to vehicle were determined using Oneway ANOVA (*, p<0.05) followed by Dunnett's test where appropriate.

DIO mice [3] = test: Example 3: oral glucose tolerance test (OGTT) in DIO mice; type: in vivo; conditions: for OGTT glucose AUC on day 28: vehicle 25.5±1.4; for OGTT glucose AUC at baseline: day −1 before treatment
Protocol: (§5) All data are represented as group mean±SEM. Data were analyzed using Prism 7.0 (Graphpad software). All normalizations were calculated using terminal body weight. All assigned animals completed the study. […] Treatment effects compared to vehicle were determined using Oneway ANOVA (*, p<0.05; *, P<0.01) followed by Dunnett's test where appropriate.

[4] = healthy subjects, cited from earlier work
DIO mice [5] = test: Example 3: fasted serum insulin in DIO mice; type: in vivo; conditions: for fasted serum insulin on day 28: vehicle 7.7±1.6; for fasted serum insulin at baseline: baseline before treatment
Protocol: as §5

[6] = Example 2: body weight of DIO mice, 6 weeks once daily oral dosing; type: in vivo; conditions: for terminal body weight: after 6 weeks, mean±SEM; for body weight at baseline: baseline before treatment
Protocol: as §1, §2, §3, §4

[7] = non-CF BE patients, 28 days, cited from earlier work
DIO mice [8] = test: Example 3: blood glucose in DIO mice; type: in vivo; conditions: for blood glucose at day 28: vehicle 143.0±7.1; for fasted blood glucose at study start: baseline before treatment
Protocol: Body weight was recorded prior to glucose measurement at baseline and weekly thereafter. […] All data are represented as group mean±SEM. Data were analyzed using Prism 7.0 (Graphpad software). All normalizations were calculated using terminal body weight. All assigned animals completed the study. […] Treatment effects compared to vehicle were determined using Oneway ANOVA (*, p<0.05; *, P<0.01) followed by Dunnett's test where appropriate.

[9] = Solubility and hygroscopicity of the drug substance; type: physicochemical
DIO mice [10] = test: Example 2: fasted serum insulin in DIO mice; type: in vivo; conditions: for fasted serum insulin on day 42: vehicle 8.2±1.5; for fasted serum insulin at baseline: baseline before treatment
Protocol: as §1, §2, §3, §4

[11] = Example 4: Phase 1 single-ascending dose study in healthy subjects, pharmacokinetics; type: in vivo, human; conditions: single doses 1 to 40 mg
[12] = Example 4: Phase 1 single-ascending dose study in healthy subjects, safety; conditions: single doses 1 to 40 mg
Text: Following Screening, subjects received single doses of study drug and were monitored during an in-clinic period and an out-patient follow-up period. Subjects were confined to the study site for Study Days −2 through 7 to collect PK and safety assessments. Following discharge from the study site on Study Day 7, subjects returned to the study site on Study Days 14, 21, 28, and 35.

[13] = Example 3: body weight of DIO mice, 4 weeks BID oral dosing; type: in vivo; conditions: for body weight growth rate / body weight at the end of the study: 4 weeks; for body weight growth rate: vehicle 9.2±2.0%; for body weight at the end of the study: vehicle 48.8±0.9; for body weight at baseline: baseline before treatment
Protocol: Body weight was recorded prior to glucose measurement at baseline and weekly thereafter. All data are represented as group mean±SEM. Data were analyzed using Prism 7.0 (Graphpad software). All normalizations were calculated using terminal body weight. All assigned animals completed the study. […] Treatment effects compared to vehicle were determined using Oneway ANOVA (*, p<0.05; *, P<0.01) followed by Dunnett's test where appropriate.

DIO mice [14] = test: Example 2: blood glucose (fasted and fed) in DIO mice; type: in vivo; conditions: for fed glucose on day 35: vehicle 134.5±6.9; for fasted blood glucose at study start: baseline before treatment
Protocol: as §1, §2, §3, §4

HFD-fed mice = conditions: cited from earlier work

CC1=C(C#N)[C@@H](c2ccc(C#N)cc2S(C)(=O)=O)N(C)C(=O)N1c1cccc(C(F)(F)F)c1 [Compound 1, (4S)-4-[4-cyano-2-(methylsulfonyl)phenyl]-3,6-dimethyl-2-oxo-1-[3-(trifluoromethyl)phenyl]-1,2,3,4-tetrahydropyrimidine-5-carbonitrile]
epididymal fat weight (% body weight) (DIO mice [1]; 3 mg/kg/day PO): 3.1±0.3% | liver weight (% body weight) (DIO mice [1]; 3 mg/kg/day PO): 6.8±0.3% | epididymal fat weight (% body weight) (DIO mice [1]; 15 mg/kg/day PO): 3.5±0.2% | liver weight (% body weight) (DIO mice [1]; 15 mg/kg/day PO): 6.4±0.2% | decrease of glucose AUC on day 42 compared to baseline (DIO mice [2]; 3 mg/kg PO): 20.0±4.5% | OGTT glucose AUC on day 42 (DIO mice [2]; 3 mg/kg/day PO): 28.6±0.7 mg/dL/min×10^3 | OGTT glucose AUC on day 28 (DIO mice [2]; 3 mg/kg/day PO): 24.0±0.9 mg/dL·min×10^3 | decrease of glucose AUC on day 42 compared to baseline (DIO mice [2]; 15 mg/kg PO): −21.9±5.0% | OGTT glucose AUC on day 42 (DIO mice [2]; 15 mg/kg/day PO): 26.3±1.1 mg/dL/min×10^3 | OGTT glucose AUC on day 28 (DIO mice [2]; 15 mg/kg/day PO): 22.7±0.7 mg/dL·min×10^3 | OGTT glucose AUC at baseline (DIO mice [2]; group assigned to 3 mg/kg/day): 36.3±2.0 mg/dL·min×10^3 | OGTT glucose AUC at baseline (DIO mice [2]; group assigned to 15 mg/kg/day): 34.4±2.2 mg/dL·min×10^3 | OGTT glucose AUC on day 28 (DIO mice [3]; 15 mg/kg BID PO): 24.7±1.9 mg/dL·min×10^3 | OGTT glucose AUC on day 28 (DIO mice [3]; 30 mg/kg BID PO): 22.4±1.0 mg/dL·min×10^3 | OGTT glucose AUC at baseline (DIO mice [3]; group assigned to 15 mg/kg BID): 33.8±0.9 mg/dL-min×10^3 | OGTT glucose AUC at baseline (DIO mice [3]; group assigned to 30 mg/kg BID): 32.8±1.8 mg/dL-min×10^3 | safety and tolerability ([4]; single and repeated doses up to 1 mg for up to 14 days): safe and well tolerated | serious adverse events (SAEs) ([4]; three Phase 1 studies): no serious AEs (SAEs) were reported | study drug-induced laboratory or ECG abnormalities ([4]; three Phase 1 studies): No safety signals | fasted serum insulin on day 28 (DIO mice [5]; 15 mg/kg BID PO): 5.8 ± 1.4 ng/mL | fasted serum insulin on day 28 (DIO mice [5]; 30 mg/kg BID PO): 4.0 ± 0.3 ng/mL | fasted serum insulin at baseline (DIO mice [5]; group assigned to 15 mg/kg BID): 7.0 ± 1.1 ng/mL | fasted serum insulin at baseline (DIO mice [5]; group assigned to 30 mg/kg BID): 4.9 ± 0.6 ng/mL | terminal body weight ([6]; 3 mg/kg/day PO): 49.8 ± 0.9 g | growth rate of body weight ([6]; 15 mg/kg/day PO, 6 weeks, vehicle 14±1.8%): 6.9±1.8% | terminal body weight ([6]; 15 mg/kg/day PO): 47.3 ± 1.1 g | body weight at baseline ([6]; group assigned to 3 mg/kg/day): 42.8 ± 1.1 g | body weight at baseline ([6]; group assigned to 15 mg/kg/day): 42.8 ± 1.0 g | safety and tolerability ([7]; 1.0 mg oral IR tablet): generally safe and well tolerated | SAEs attributed to the drug ([7]; 1.0 mg oral): no SAEs were attributed by the investigator to the drug | study drug-induced laboratory parameter or ECG effects ([7]; 1.0 mg oral): No safety signals | blood glucose at day 28 (DIO mice [8]; 15 mg/kg BID PO): 151.9 ± 6.1 mg/dL | blood glucose at day 28 (DIO mice [8]; 30 mg/kg BID PO): 137.3 ± 4.1 mg/dL | fasted blood glucose at study start (DIO mice [8]; group assigned to 15 mg/kg BID): 185.1 ± 8.3 mg/dL | fasted blood glucose at study start (DIO mice [8]; group assigned to 30 mg/kg BID): 180.1 ± 7.0 mg/dL | solubility in acetone ([9]; acetone): soluble | solubility in ethanol ([9]; ethanol): very slightly soluble | hygroscopicity ([9]; normal storage conditions): not hygroscopic | solubility in water ([9]; water): practically insoluble | fasted serum insulin on day 42 (DIO mice [10]; 3 mg/kg/day PO (low dose)): 11.8 ± 1.3 ng/mL | fasted serum insulin on day 42 (DIO mice [10]; 15 mg/kg/day PO (higher dose)): 5.9 ± 1.5 ng/mL | fasted serum insulin at baseline (DIO mice [10]; group assigned to 3 mg/kg/day): 3.5 ± 0.5 ng/mL | fasted serum insulin at baseline (DIO mice [10]; group assigned to 15 mg/kg/day): 5.4 ± 1.0 ng/mL | exposure (AUC and Cmax) versus dose [11]: proportional increases in exposure (AUC and Cmax) with dose | AE rate compared with placebo subjects [12]: somewhat lower than that in the control (placebo) subjects | effects on laboratory safety evaluations (clinical chemistry and hematology) [12]: no clear effects | serious AEs, discontinuations, deaths [12]: no serious AEs and no discontinuations or deaths | occurrence of headache ([12]; 36 subjects on drug): only observed in one Compound 1 subject | body weight growth rate ([13]; 15 mg/kg BID PO): 5.9±1.6% | body weight at the end of the study ([13]; 15 mg/kg BID PO): 47.5 ± 1.3 g | body weight growth rate ([13]; 30 mg/kg BID PO): 2.8±2.3% | body weight at the end of the study ([13]; 30 mg/kg BID PO): 46.0 ± 1.2 g | body weight at baseline ([13]; group assigned to 15 mg/kg BID): 44.8 ± 0.7 g | body weight at baseline ([13]; group assigned to 30 mg/kg BID): 44.8 ± 0.7 g | fed glucose on day 35 (DIO mice [14]; 3 mg/kg/day PO): 128.3 ± 3.4 mg/dL | decrease of fasting glucose from baseline (DIO mice [14]; 15 mg/kg/day PO, 6 weeks): 11% | fed glucose on day 35 (DIO mice [14]; 15 mg/kg/day PO): 134.9 ± 4.7 mg/dL | fasted blood glucose at study start (DIO mice [14]; group assigned to 3 mg/kg/day): 160.3 ± 5.7 mg/dL | fasted blood glucose at study start (DIO mice [14]; group assigned to 15 mg/kg/day): 164.6 ± 7.3 mg/dL

CC(C)[C@@H]1C(=O)N(S(C)(=O)=O)[C@@H]2CCN(C(=O)/C=C/CN3CCCCC3)[C@H]21.Cl [GW311616A]
glucose tolerance (HFD-fed mice; HFD mice (Talukdar 2012)): improved glucose tolerance | insulin sensitivity in glucose clamp/tracer studies (HFD-fed mice; HFD mice (Talukdar 2012)): increased peripheral and hepatic insulin sensitivity | insulin resistance and body weight gain (HFD-fed mice; HFD-fed mice (Mansuy-Aubert 2013)): reversed insulin resistance and body weight gain

CN(CCOc1ccc(CC2SC(=O)NC2=O)cc1)c1ccccn1 (stereo not drawn) [rosiglitazone, reference compound]
epididymal fat weight (% body weight) (DIO mice [1]; 30 mg/kg/day PO): 3.7±0.2% | liver weight (% body weight) (DIO mice [1]; 30 mg/kg/day PO): 5.0±0.2% | terminal body weight ([6]; 30 mg/kg/day PO): 55.0 ± 1.4 g | body weight at baseline ([6]; group assigned to 30 mg/kg/day): 42.8 ± 1.0 g | fasted serum insulin on day 42 (DIO mice [10]; 30 mg/kg/day PO): 1.3 ± 0.1 ng/mL | fasted serum insulin at baseline (DIO mice [10]; group assigned to 30 mg/kg/day): 5.2 ± 1.1 ng/mL | decrease of fasting glucose compared to baseline (DIO mice [14]; 30 mg/kg/day PO, 6 weeks): 23% | fasting glucose after 6 weeks of treatment (DIO mice [14]; 30 mg/kg/day PO, 6 weeks): 125.8 ± 4.8 mg/dL | fed glucose on day 35 (DIO mice [14]; 30 mg/kg/day PO): 125.5 ± 4.5 mg/dL | fasted blood glucose at study start (DIO mice [14]; group assigned to 30 mg/kg/day): 164.0 ± 4.0 mg/dL
